Laboratory results taken from ChEMBL document CHEMBL4028802, “DILIrank: the largest reference drug list ranked by the risk for developing drug-induced liver injury in humans” (Drug Discov Today, 2016).

Assays:
Homo sapiens [1] = organism: Homo sapiens; experiment: Liver toxicity in human assessed as induction of drug-induced liver injury by measuring verified drug-induced liver injury concern status
Homo sapiens [2] = organism: Homo sapiens; experiment: Liver toxicity in human assessed as induction of drug-induced liver injury by measuring severity class index
Throughout, for DILI severity class: key of the grades not given here.

| Structure (SMILES) | DILI_Concern (Homo sapiens [1]) | DILI_severity_class (Homo sapiens [2]) |
| --- | --- | --- |
| CO[C@H]1O[C@H](COS(=O)(=O)[O-])[C@@H](O[C@@H]2O[C@@H](C(=O)[O-])[C@@H](O[C@H]3O[C@H](COS(=O)(=O)[O-])[C@@H](O[C@@H]4O[C@H](C(=O)[O-])[C@@H](O[C@H]5O[C@H](COS(=O)(=O)[O-])[C@@H](O)[C@H](O)[C@H]5NS(=O)(=O)[O-])[C@H](O)[C@H]4O)[C@H](OS(=O)(=O)[O-])[C@H]3NS(=O)(=O)[O-])[C@H](O)[C@H]2OS(=O)(=O)[O-])[C@H](O)[C@H]1NS(=O)(=O)[O-].[Na+].[Na+].[Na+].[Na+].[Na+].[Na+].[Na+].[Na+].[Na+].[Na+] [FONDAPARINUX SODIUM] | Less-Dili-Concern | 3 |
| Oc1ccc(C2CNCCc3c2cc(O)c(O)c3Cl)cc1 (configuration not stated) [FENOLDOPAM] | No-Dili-Concern | 0 |
| CN(C)c1nc(N(C)C)nc(N(C)C)n1 [ALTRETAMINE] | Ambiguous-Dili-Concern | 2 |
| CN/C(=N/CCSCc1nc[nH]c1C)NC#N [CIMETIDINE] | Less-Dili-Concern | 2 |
| Cc1nc2c([nH]1)-c1ccccc1N(C(=O)c1ccc(NC(=O)c3ccccc3-c3ccccc3)cc1)CC2 [CONIVAPTAN] | No-Dili-Concern | 0 |
| NC(=O)NO [HYDROXYUREA] | Most-Dili-Concern | 8 |
| COc1cc([C@@H]2c3cc4c(cc3[C@@H](O[C@@H]3O[C@@H]5CO[C@@H](c6cccs6)O[C@H]5[C@H](O)[C@H]3O)[C@H]3COC(=O)[C@H]23)OCO4)cc(OC)c1O [TENIPOSIDE] | Less-Dili-Concern | 3 |
| CC(C(=O)O)c1cccc(Oc2ccccc2)c1 (configuration not stated) [FENOPROFEN] | Most-Dili-Concern | 8 |
| CN[C@@H]1CCc2[nH]c3ccc(C(N)=O)cc3c2C1 [FROVATRIPTAN] | No-Dili-Concern | 0 |
| C[C@]12C=CC(=O)N[C@@H]1CC[C@@H]1[C@@H]2CC[C@]2(C)[C@@H](C(=O)Nc3cc(C(F)(F)F)ccc3C(F)(F)F)CC[C@@H]12 [DUTASTERIDE] | No-Dili-Concern | 0 |
| CCCc1nc(C)c2c(=O)[nH]c(-c3cc(S(=O)(=O)N4CCN(CC)CC4)ccc3OCC)nn12 | Ambiguous-Dili-Concern | 3 |
| CC1(C)S[C@@H]2[C@H](NC(=O)[C@H](N)c3ccccc3)C(=O)N2[C@H]1C(=O)O [AMPICILLIN] | Less-Dili-Concern | 3 |
| C#C[C@@]1(OC(C)=O)CC[C@H]2[C@@H]3CCC4=CC(=O)CC[C@@H]4[C@H]3CC[C@@]21C | No-Dili-Concern | 0 |
| Clc1cccc(Cl)c1N=C1NCCN1 [CLONIDINE] | Ambiguous-Dili-Concern | 3 |
| CC[C@H]1OC(=O)[C@H](C)[C@@H](O[C@H]2C[C@@](C)(OC)[C@@H](O)[C@H](C)O2)[C@H](C)[C@@H](O[C@@H]2O[C@H](C)C[C@H](N(C)C)[C@H]2O)[C@](C)(OC)C[C@@H](C)C(=O)[C@H](C)[C@@H](O)[C@]1(C)O [CLARITHROMYCIN] | Most-Dili-Concern | 8 |
| CC(=O)N[C@@H]1[C@@H](O[C@@H]2O[C@@H](C(=O)O)[C@@H](O)[C@H](O)[C@H]2O)[C@@H](OS(=O)(=O)O)[C@@H](CO)O[C@H]1O | Most-Dili-Concern | 8 |
